Twelve compounds from patent US8168628B2, “Conjugated psychotropic drugs and uses thereof” (Ramot at Tel-Aviv University Ltd., priority 2001, dated 2012) can be followed below.

Structures can show the parent of a compound that is named as a salt. Where two headings read alike, the source gives them in different places.

One data set relates to prolactin. Briefly: Prolactin blood level in rats (enzyme immunometric assay). The note with it: i.p.; measured at 0, 60 and 120 min after treatment. Type of data set: in vivo, rat. The text has this:
Prolactin secretion: Typical neuroleptics induce hyperprolactinemia, which is frequently associated with gallactorehea and impaired gonadal and sexual function. The measurement of the circulatory plasma prolactin level was therefore used as a sensitive biochemical marker for the psychotropic activity of the known neuroleptics and the chemical conjugates of the present invention, following intraperitoneal or oral administration thereof. Thus, blood was collected from the punctured eye orbital of rats under ether anesthesia and the assay was performed using Millennia, rat prolactin enzyme immunometric assay-kit (DPC, USA).

The next data set deals with B16 MDR. Briefly: Proliferation test, B16 MDR cells. It is filed as cell-based, murine. The note with it: Mus musculus; linear regression of survival percentage. Here is the method: (§1) Cell lines: Human prostate carcinoma (PC-3), human colon carcinoma (HT-29), murine melanoma (B-16) and its drug resistant subclone (B-16 MDR), mouse fibroblasts (3T3), myeloid leukemia (HL 60) and its drug resistant subclone (HL 60 MX2), endometrium cell line (MES SA) and its drug resistant subclone (MES DX5), jurkat T lymphoma and monocyte leukemia (U-937), were used in this study.
(§2) Proliferation of cancer and normal cells: Proliferation was measured by neutral red assay or by a fluorometric assay quantitating DNA content. In the neutral red assay, the neutral red is absorbed by lysosomes, thus causing coloring of living cells. Quantitative analysis is performed by colorimetric assay (ELISA reader at 550 nm). In the fluorometric assay, alamar blue is used as a redox indicator. Alamar blue fluorescence was measured at an excitation wavelength of 544 nm and an emission wavelength of […] (FLUOstar BMG Lab Technologies, Offenburg, Germany).
(§3) The cells were sub-cultured and the tested compounds were added thereto in increasing concentrations. The IC50 values were determined by linear regression of the survival percentage of the cells.

Another data set deals with B16. Put plainly: Proliferation test, B16 melanoma cells. It is filed as cell-based, murine. The note with it: Mus musculus, B16; linear regression of survival percentage. The method, then:
as §1, §2, §3

The test system of the next data set is HT-29. Briefly: Proliferation test, HT-29 cells. The note with it: Homo sapiens, linear regression of survival percentage. It is filed as cell-based. Here is the method: as §1, §2, §3
The next data set has as its system PC-3. Put plainly: Proliferation test, PC-3 cells. It is filed as cell-based. The note with it: Homo sapiens, linear regression of survival percentage. The method, then:
as §1, §2, §3

The subject of the next data set is Normal rat fibroblasts. Put plainly: Proliferation test, normal rat fibroblasts. The note with it: Fibroblast, linear regression of survival percentage. It is filed as cell-based. Here is the method:
The primary cultures of rat fibroblasts were obtained from neonatal rats using known procedures.
as §2, §3

Data set [1] has as its system rats. Put plainly: Catalepsy in rats, “wall” test. The note with it: i.p.; for induced catalepsy, SAR studies: compared with perphenazine (FIG. 2); for time course of catalepsy: over a period of 7 hours (FIGS. 4a, 4b).
Experimental: (§4) Animals: Young adult male rats (150-230 grams) were purchased from Harlan (Israel). Animals were divided 2-5/cage and housed in controlled conditions in the animal room for a week prior to the experiments. The experiments were conducted with naive animals, in a double blind procedure. In each experiment various treatment groups (about 5-10 animals each) were tested.
(§5) Catalepsy in rats: The manifestation of the extrapyramidal adverse effects induced by typical neuroleptics was evaluated by the appearance of stereotypic cataleptic behavior in rats following the neuroleptic treatment. Catalepsy was determined by two methods: (i) by measuring the time it took an animal hanging on a cage wall to move its hind legs and reach a flat surface (the “wall” test); and (ii) rats were placed on a flat surface with their anterior limbs leaning on a flat bar (5.5 cm height) resembling a piano playing position. Catalepsy was determined by the time it took an animal to descend and reach the flat surface (the “piano” test). The maximum time of follow up was 2 minutes and these measurements were performed hourly and individually for each animal. These tests provide an assessment of central dopamine (DA) blocking activity and are acceptable criteria for extrapyramidal symptoms induced by anti-psychotic drugs [10].
(§6) A control animals group was treated with the vehicle (lactic acid) only.
Another data set concerns 3T3. Briefly: Proliferation test, 3T3 fibroblasts. Type of data set: cell-based. The note with it: Mus musculus, NIH3T3; linear regression of survival percentage. The method, then: as §1, §2, §3
The next data set concerns HL 60. Briefly: Proliferation test, HL 60 cells. Type of data set: cell-based. The note with it: Homo sapiens, linear regression of survival percentage. Here is the method: as §1, §2, §3
The next data set deals with HL 60 MX2 (MDR). Put plainly: Proliferation test, HL 60 MX2 (MDR) cells. Type of data set: cell-based. The note with it: Homo sapiens, HL60/MX2; linear regression of survival percentage. Here is the method: as §1, §2, §3
For a further data set, the system named is MES SA. Briefly: Proliferation test, MES SA cells. Type of data set: cell-based. The note with it: Homo sapiens, linear regression of survival percentage. The method, then: as §1, §2, §3
For a further data set, the system named is MES SA DX5 (MDR). Put plainly: Proliferation test, MES SA DX5 (MDR) cells. Type of data set: cell-based. The note with it: Homo sapiens, linear regression of survival percentage. The method, then: as §1, §2, §3
A further data set deals with Jurkat T lymphoma cells. Put plainly: Proliferation / viability test, Jurkat T lymphoma cells. It is filed as cell-based. The note with it: Homo sapiens, linear regression of survival percentage, read-out: IC50, JURKAT. Here is the method: as §1, §2, §3
The next data set deals with U-937. Put plainly: Proliferation test, U-937 cells. Type of data set: cell-based. The note with it: Homo sapiens, linear regression of survival percentage. The method, then: as §1, §2, §3
Data set [2] relates to rats. Put plainly: Behavioral criteria: sedation and mobility score in rats. The note with it: i.p., 5 mg/kg perphenazine, 7.5 mg/kg fluphenazine or equimolar conjugate, score 0-3.
Experimental: The effect of the administration of the tested compound on animals behavior was measured by evaluating the degree of animal sedation and mobility following the treatment described hereinabove, using a score of from 0 to 3. A score of 0 represents active and mobile animals, 1 represents calm and mobile animals, 2 represents calm and immobile animals and 3 represents completely ataxic and non-alert animals.
Data set [3] is described as follows: Stability upon prolonged storage (NMR). It is filed as physicochemical. The note with it: about 3 months storage; NMR spectroscopy.
For data set [4], the system named is normal and transformed cells. Put plainly: Proliferation tests, summary over the tested cell lines. It is filed as cell-based. The note with it: read-out: IC50 range, anti-proliferative activity. Here is the method: as §2, §3
In data set [5] the test system is C6 rat glioma cells. Put plainly: Chemosensitization in C6 rat glioma cells. The note with it: Cisplatin 5-50 μM, neutral red (FIG. 17). Type of data set: cell-based. The method, then:
Chemosensitization: The chemosensitizing effect of perphenazine and its chemical conjugate AN 168 was measured in vitro. Various concentrations of perphenazine or AN 168 were co-administered together with a chemotherapeutic agent to either C6 rat glioma cells or to Jurkat T lymphoma cells. Cells viability and/or DNA fragmentation following treatment with either the chemotherapeutic agent, perphenazine, AN 168, a combination of the chemotherapeutic agent and perphenazine or a combination of a chemotherapeutic agent with AN 168 were measured as described hereinabove.

Data set [6] has as its system C6 rat glioma cells. Briefly: DNA fragmentation in C6 rat glioma cells (propidium iodide flow cytometry). The note with it: Cisplatin 30 μM; perphenazine 25 and 50 μM; AN 168 25, 50 μM (FIG. 18). Type of data set: cell-based. The method, then: Apoptosis and DNA fragmentation: Fragmentation of cell nuclei was studied by flow cytometric analysis of propidium iodide-stained cells. This analysis was performed using a FACScan (Becton Dickinson, Mountain View, Calif.) equipped with an argon ion laser adjusted to an excitation wavelength of 480 nm and with a Doublet Discrimination Module (DDM). Lysis II (Becton Dickinson) software was used for data acquisition. Apoptotic nuclear changes were evaluated according to the criteria of Nicolletti et al..
The DNA fragmentation was determined by the propidium iodide flow cytometric method described hereinabove.
(In general: In flow cytometry, cells or beads pass a laser one at a time.)

Data set [7] relates to rats. The note with it: male, rat, in vivo, ip.
Experimental: as §4, §5, §6
Data set [8] concerns rats. Briefly: D-Amphetamine-induced hyperactivity in rats. Type of data set: in vivo, rat. The note with it: GABA alone, 5 mg/kg i.p. (FIGS. 22-25). Here is the method: D-Amphetamine-induced hyperactivity in rats: The efficacy of the chemical conjugates of the present invention was studied using the D-amphetamine-induced hyperactivity and motility model, which is known as one of the most established animal models for schizophrenia.
Naïve Wistar male rats were placed in individual boxes. In each experiment 4 rats were studied. Perphenazine or equimolar doses of its chemical conjugate AN-168 were administered intraperitoneally (ip) to the rats 30 minutes prior to intraperitoneal administration of amphetamine (2.5 mg/kg), or 90 minutes prior to oral administration of amphetamine (2.5 mg/kg). The animals locomotor activity was assessed using two parameters: climbing attempts of the animal on the barrel walls (as big movements) and head movement of the animal (as small movements). Assessment was recorded every 15 minutes for two hours. Each animal was tested at each time point for 120 seconds.
The climbing behavior of the rats in each group was measured as described hereinabove.

Setting [9] is: 5 mg/kg perphenazine and equimolar conjugates.
The mark [10] stands for this setting: 5 mg/kg perphenazine, 7.5 mg/kg fluphenazine, equimolar conjugates, sum 0-420 min, normalized to parent drug (FIG. 3a).

A word on the IC50: it is the concentration that inhibits the measured activity by half. Regarding `O=C(CCCc1ccccc1)OCCN1CCN(CCCN2c3ccccc3Sc3ccc(Cl)cc32)CC1` [AN-130, Perphenazine 4-Phenylbutyrate], in the data set with prolactin, the “time at which prolactin blood level peaked” value came to 60 min. Besides, the IC50 in the data set on B16 MDR turned out to be 58 µM; in the data set on B16, 36.5 ± 8.1 µM; in the data set with HT-29 it was 17.3 ± 3.07 µM; in the data set with PC-3, 52.9 ± 28.7 µM; with Normal rat fibroblasts it was 41.9 ± 16.8 µM. Further, the total catalepsy result in the data set on rats [1] (5 mg/kg perphenazine and equimolar conjugates, sum of determinations at 0, 60, 120 min (FIG. 1a)) was “catalepsy was induced”.
As to `CCC(=O)OCCN1CCN(CCCN2c3ccccc3Sc3ccc(Cl)cc32)CC1` [AN-177, Perphenazine Propionate], the IC50 in the data set with HT-29 was found to be 25.8 µM; in the data set on 3T3, 24.6 µM; in the data set with HL 60, 15.1 µM; in the data set with HL 60 MX2 (MDR), 17.6 µM. Besides, the “induced catalepsy, SAR studies” value with rats [1] (setting [9]) is “significant reduction of the induced catalepsy”.
In the case of `CCCCC(=O)OCCN1CCN(CCCN2c3ccccc3Sc3ccc(Cl)cc32)CC1` [AN-178, Perphenazine Valerate], the concentration for half-maximal inhibition (IC50) in the data set on HT-29 was 11.5 µM; in the data set with 3T3 it was 18.6 µM. The “induced catalepsy, SAR studies” value with rats [1] (setting [9]) was “significant reduction of the induced catalepsy”.
For the compound `CCC(=O)OCCN1CCN(CCCN2c3ccccc3Sc3ccc(C(F)(F)F)cc32)CC1` [AN-179, Fluphenazine Propionate], the IC50 is 18.2 µM with HL 60 and 21.4 µM with HL 60 MX2 (MDR).
As to `CCCC(=O)OCCN1CCN(CCCN2c3ccccc3Sc3ccc(C(F)(F)F)cc32)CC1` [AN-180, Fluphenazine Butyrate], in the data set on HL 60, half-maximal inhibition (IC50) required 19 µM. The compound further showed an IC50 in the data set on HL 60 MX2 (MDR) of 18.8 µM. The compound further showed an IC50 with MES SA of 12 µM. For the same compound, the IC50 with MES SA DX5 (MDR) came out at 12.7 µM. The half-inhibitory concentration (IC50) in the data set with Jurkat T lymphoma cells was determined as 10.4 µM. The same compound returned an IC50 in the data set on U-937 of 12.2 µM. For the same compound, in the data set on rats [1] (setting [10]), the total catalepsy entry is “reduced catalepsy significantly”. Also, the “time course of catalepsy” value in the data set on rats [1] was “lower catalepsy”. In addition, in the data set with rats [2], the “sedation and mobility score, 30 min” value is reported as 1; the “sedation and mobility score, 60 min” value amounted to 2; the “sedation and mobility score, 90 min” value came to 3; the “sedation and mobility score, 120 min” value came out at 2. Besides, in the data set on rats [2], the “sedation and mobility score, 180 min” value is given as 1; the “sedation and mobility score, 240 min” value came out at 1.
Take `CCCCC(=O)OCCN1CCN(CCCN2c3ccccc3Sc3ccc(C(F)(F)F)cc32)CC1` [AN-181, Fluphenazine Valerate]: the IC50 in the data set with HL 60 turned out to be 14.8 µM; with HL 60 MX2 (MDR) it was 16.7 µM.
On to `NCCCC(=O)OCCN1CCN(CCCN2c3ccccc3Sc3ccc(C(F)(F)F)cc32)CC1` [AN-187, fluphenazine 4-Aminobutyrate Trihydrochloride], for which the “time at which prolactin blood level peaked” value in the data set on prolactin was found to be 60 min. In the data set with HL 60, this compound yielded an IC50 of 18.6 µM. This compound also gave an IC50 in the data set on HL 60 MX2 (MDR) of 17.1 µM. In addition, 14.4 µM corresponded to half-maximal inhibition in the data set on MES SA (IC50). In addition, in the data set on MES SA DX5 (MDR), the IC50 amounted to 9.47 µM. The IC50 in the data set with Jurkat T lymphoma cells was 10.3 µM. For the same compound, in the data set with U-937, half-maximal inhibition (IC50) was put at 18.9 µM. The “stability upon prolonged storage” value in data set [3] is reported as “does not tend to decompose upon a prolonged storage”. In the data set with rats [1] (setting [10]), the total catalepsy entry is “reduced it considerably”. Besides, the “catalepsy at the end of the 7-hours period” value in the data set on rats [1] (equimolar to 7.5 mg/kg fluphenazine (FIG. 4b)) was “abolished at the end of the 7-hours period”. Further, the “time course of catalepsy” value with rats [1] is “lower catalepsy”. In addition, in the data set with rats [2], the “sedation and mobility score, 30 min” value worked out at 1; the “sedation and mobility score, 60 min” value came out at 2; the “sedation and mobility score, 90 min” value stood at 2; the “sedation and mobility score, 120 min” value is 2. Also, in the data set on rats [2], the “sedation and mobility score, 180 min” value turned out to be 1; the “sedation and mobility score, 240 min” value was 1.
Take `CCCC(=O)O` [BA, butyric acid, reference compound]: the IC50 in the data set with B16 MDR is 8000 ± 546 µM; in the data set on B16, 1300 ± 113 µM; in the data set with HT-29, 7170 ± 2030 µM; with Normal rat fibroblasts, 5540 µM; in data set [4] it was 1000 to 8000 µM.
On to `N.N.[Cl][Pt][Cl]` [Cisplatin, reference compound], for which the “cells viability, Cisplatin alone” value with C6 rat glioma cells [5] is recorded as “completely resistant”. Further, the DNA fragmentation result in the data set with C6 rat glioma cells [6] is listed as “no effect of DNA fragmentation”.
In the case of `OCCN1CCN(CCCN2c3ccccc3Sc3ccc(C(F)(F)F)cc32)CC1` [Fluphenazine, fluphenazine, reference compound], the “time at which prolactin blood level peaked” value with prolactin came to 60 min. Also, the “time course of catalepsy” value with rats [7] is on record as “displayed catalepsy during the measured 7 hours”.
On to `NCCCC(=O)O` [GABA, γ-aminobutyric acid, reference compound], for which the “effect on amphetamine-induced climbing and head movement” value in the data set with rats [8] was “did not modify the effect of amphetamine”.
On to `O=C(O)CCCc1ccccc1` [PBA, 4-phenylbutyric acid], for which the IC50 in data set [4] was in the range of 2000 to 12000 µM.
